The test system of one series is Human alphaherpesvirus 1. It is filed as functional, 29R, Vero E6. The settings on record: time 72 hrs.
The test system of a further series is BHK-21. The experiment in a line: Cytotoxicity against golden hamster BHK-21 cells measured after 6 days by MTT assay. It is filed as toxicity, cell-based, Mesocricetus auratus. As to conditions: bhk-21, 144 h, time 6 day. On the technique in general: Tetrazolium assays rely on reduction of a dye to a coloured formazan, in cell work by metabolically active cells.

The next series concerns Chikungunya virus. Format: functional, Vero E6. The settings on record: time 72 hrs.
The next series relates to Vero C1008. The experiment in a line: Cytotoxicity against African green monkey Vero E6 cells measured after 72 hrs by MTT assay. Format: toxicity, cell-based. As to conditions: chlorocebus sabaeus, vero c1008, 72 h.
Series [1] deals with Zika virus. Format: functional, Vero E6. The settings on record: time 72 hrs.
The test system of series [2] is dengue virus type 2. As to the kind of experiment: Antiviral activity against DENV2 infected in hamster BHK-21 cells assessed as inhibition of plaque formation by measuring reduction in PFU per well incubated for 6 days by crystal violet staining based assay. Format: functional. As to conditions: time 6 day.
In series [3] the test system is dengue virus type 2. Format: functional, Vero E6. As to conditions: time 72 hrs.
Series [4] deals with Zika virus. It is filed as functional, Vero E6. The settings on record: time 72 hrs. The source holds these as a separate data set.
Series [5] deals with Zika virus. The experiment in a line: Antiviral activity against ZIKV Col infected in African Green monkey Vero cells assessed as inhibition of viral replication by measuring reduction in viral genomic copies at 12.5 to 25 ug/ml by qRT-PCR analysis. Format: functional, organism-based. The settings on record: dose 12.5-25 µg/ml. A general note: Quantitative PCR measures a nucleic acid by following its amplification.

In series [6] the test system is Zika virus. As to the kind of experiment: Antiviral activity against ZIKV Col infected in African Green monkey Vero cells assessed as reduction in viral protein production at 3.1 to 25 ug/ml by ELISA relative control. Format: functional. As to conditions: dose 3.1-25 µg/ml; at 3.1 to 25 µg/mL. On the set-up: scale not given: the % may be the effect or the level left.

The test system of series [7] is Zika virus. As to the kind of experiment: Antiviral activity against ZIKV IMT17. Format: functional, organism-based.

SMILES strings stand for the structures. Calls of active or inactive are those of the source. No cut-off for these calls is given here.

These results are taken from ChEMBL document CHEMBL5137096, “Antiviral Profiling of C-18- or C-19-Functionalized Semisynthetic Abietane Diterpenoids” (J Nat Prod, 2022).

For the compound `COC(=O)[C@]1(C)CCC[C@]2(C)c3cc(OC(C)=O)c(C(C)C)cc3CC[C@@H]12`, the EC in the series with Human alphaherpesvirus 1 worked out at 12.5 µg/mL; in the series with Chikungunya virus, 25 µg/mL; in the series with Zika virus [1], 12.5 µg/mL. Moreover, the CC100 with BHK-21 and with Vero C1008 was 50 µg/mL each time.
`COC(=O)[C@]1(C)CCC[C@]2(C)c3cc(OC(C)=O)c(C(C)C)cc3C(=O)C[C@@H]12` registered an EC in the series with Human alphaherpesvirus 1 of 25 µg/mL. Besides, the CC100 with BHK-21 and in the series with Vero C1008 was 25 µg/mL each time.
`CC(C)c1cc2c(cc1O)[C@@]1(C)CCC[C@](C)(CO)[C@@H]1CC2=O`: the EC in the series with Human alphaherpesvirus 1 and with Chikungunya virus was 25 µg/mL throughout. For the same compound, the CC100 in the series with BHK-21 is 25 µg/mL; in the series on Vero C1008 it was greater than 25 µg/mL.
Consider `CC(C)c1cc2c(cc1O)[C@@]1(C)CCC[C@](C)(C(=O)O)[C@@H]1CC2=O`, for which the CC100 in the series on BHK-21 stood at 12.5 µg/mL; with Vero C1008 it was 25 µg/mL.
Turning to `Nc1nc2c(ncn2COCCO)c(=O)[nH]1` [ACYCLOVIR], in the series with Human alphaherpesvirus 1, the EC amounted to 1.5 µg/mL.
Turning to `COC(=O)[C@]1(C)CCC[C@]2(C)c3ccc(C(C)C)c(O)c3CC[C@@H]12`, the EC was 12.5 µg/mL in the series on Human alphaherpesvirus 1; 12.5 µg/mL with Chikungunya virus; 3.1 µg/mL in the series on dengue virus type 2 [2]; 25 µg/mL in the series on dengue virus type 2 [3]; 12.5 µg/mL with Zika virus [4]. The CC100 in the series on BHK-21 and with Vero C1008 was greater than 25 µg/mL in each case.
In the case of `COC(=O)[C@@]1(C)CCC[C@]2(C)c3cc(O)c(C(C)C)cc3C(=O)C[C@@H]12`, the CC100 with BHK-21 was determined as 12.5 µg/mL; in the series with Vero C1008, 25 µg/mL. For the same compound, the EC is 12.5 µg/mL in the series with Chikungunya virus and 12 µg/mL in the series with dengue virus type 2 [3].
For `CC(C)c1cc2c(cc1O)[C@@]1(C)CCCC(C)(C)[C@@H]1CC2` [FERRUGINOL], the CC100 in the series with BHK-21 and with Vero C1008 was greater than 50 µg/mL throughout. Also, the EC with Chikungunya virus is 25 µg/mL; with dengue virus type 2 [2], 12.5 µg/mL; in the series on dengue virus type 2 [3], 25 µg/mL; with Zika virus [4], 12.5 µg/mL.
For the compound `CC(C)c1cc2c(cc1O)[C@@]1(C)CCC[C@](C)(C(=O)O)[C@@H]1CC2` [LAMBERTIC ACID], the EC in the series with Human alphaherpesvirus 1, with Chikungunya virus, in the series on dengue virus type 2 [3], in the series with Zika virus [4] and with Zika virus [1] was 25 µg/mL each time. Moreover, the CC100 in the series on BHK-21 and in the series with Vero C1008 was greater than 50 µg/mL each time.
As for `COC(=O)[C@]1(C)CCC[C@]2(C)c3cc(O)c(C(C)C)cc3C(=O)C[C@@H]12`, the EC in the series with Human alphaherpesvirus 1 and in the series on Chikungunya virus was 25 µg/mL throughout. Besides, the CC100 in the series with BHK-21 stood at 25 µg/mL; with Vero C1008, 50 µg/mL.
In the case of `CC(C)c1cc2c(cc1O)[C@@]1(C)CCC[C@@](C)(CO)[C@@H]1CC2` [18-HYDROXYFERRUGINOL], the EC in the series on Human alphaherpesvirus 1 is 12.5 µg/mL; in the series with Chikungunya virus, 12.5 µg/mL; in the series on dengue virus type 2 [2] it was 3.1 µg/mL; in the series on dengue virus type 2 [3], 25 µg/mL; in the series with Zika virus [4] it was 25 µg/mL; in the series on Zika virus [1], 12.5 µg/mL. Moreover, the CC100 with BHK-21 and with Vero C1008 was 50 µg/mL each time.
For the compound `CC(C)c1ccc2c(c1)CC[C@H]1C(C)(CO)CCC[C@]21C` (stereo not given in full), the CC100 in the series on BHK-21 and in the series with Vero C1008 was greater than 50 µg/mL in each case. Moreover, the EC came out at 25 µg/mL with Chikungunya virus, 12.5 µg/mL in the series on dengue virus type 2 [2], 25 µg/mL in the series with dengue virus type 2 [3] and 12.5 µg/mL in the series with Zika virus [4].
In the case of `CC(C)c1cc2c(cc1O)[C@@]1(C)CCC[C@@](C)(C(=O)O)[C@@H]1CC2=O`, the EC in the series on Human alphaherpesvirus 1 and with Chikungunya virus was 25 µg/mL throughout. Moreover, the CC100 in the series with BHK-21 is 50 µg/mL; in the series with Vero C1008, greater than 50 µg/mL.
For `CC(C)c1ccc2c(c1O)CC[C@H]1[C@](C)(CO)CCC[C@]21C`, the CC100 in the series with BHK-21 and in the series on Vero C1008 was greater than 25 µg/mL throughout. For the same compound, the EC with Chikungunya virus and with Zika virus [4] was 12.5 µg/mL in each case.
As to `CC(C)c1cc2c(cc1O)[C@@]1(C)CCC[C@@](C)(CN3C(=O)c4ccccc4C3=O)[C@@H]1CC2`, the inhibition result with Zika virus [5] was “Active”. Further, the EC in the series with Human alphaherpesvirus 1 came to 12.5 µg/mL; in the series on Chikungunya virus, 6.2 µg/mL; with dengue virus type 2 [2], 12.5 µg/mL; in the series on dengue virus type 2 [3] it was 25 µg/mL; in the series with Zika virus [4], 6.2 µg/mL; with Zika virus [1], 3.1 µg/mL. For the same compound, the CC100 in the series on BHK-21 and with Vero C1008 was greater than 50 µg/mL throughout. Moreover, in the series with Zika virus [6], the Activity is recorded as less than 50%. Besides, a half-maximal response with Zika virus [7] (EC50) required 7.7 µM.
`COC(=O)[C@@]1(C)CCC[C@]2(C)c3cc(OC(C)=O)c(C(C)C)cc3CC[C@@H]12`: the CC100 in the series on BHK-21 and with Vero C1008 was 25 µg/mL each time. Moreover, the results for the EC with Chikungunya virus, in the series with dengue virus type 2 [3] and in the series on Zika virus [4] were 25 µg/mL, 12.5 µg/mL and 12.5 µg/mL, respectively.
`CC(C)c1cc2c(cc1O)[C@@]1(C)CCC[C@](C)(CO)[C@@H]1CC2`: the values for the EC in the series on Human alphaherpesvirus 1, with Chikungunya virus and with Zika virus [4] were 12.5 µg/mL, 25 µg/mL and 12.5 µg/mL, respectively. In addition, the CC100 amounted to 12.5 µg/mL with BHK-21 and 25 µg/mL in the series with Vero C1008.
`CC(C)c1ccc2c(c1O)CC[C@H]1[C@](C)(C(=O)O)CCC[C@]21C`: the CC100 in the series on BHK-21 and in the series on Vero C1008 was greater than 25 µg/mL in each case. For the same compound, the EC with Chikungunya virus came to 25 µg/mL; with Zika virus [4] it was 25 µg/mL; in the series on Zika virus [1] it was 12.5 µg/mL.
Take `COC(=O)[C@]1(C)CCC[C@]2(C)c3cc(C(C)=O)c(C(C)C)cc3CC[C@@H]12`: the EC was 12.5 µg/mL with Human alphaherpesvirus 1 and 25 µg/mL in the series on Chikungunya virus. In addition, the CC100 in the series on BHK-21 was 25 µg/mL; with Vero C1008, greater than 50 µg/mL.
Regarding `CC(C)c1ccc2c(c1)CC[C@H]1C(C)(C(=O)O)CCC[C@]21C` (stereo not given in full), the EC in the series on Human alphaherpesvirus 1 came out at 25 µg/mL; with Chikungunya virus it was 12.5 µg/mL; in the series with dengue virus type 2 [3], 25 µg/mL; in the series on Zika virus [4] it was 12.5 µg/mL. For the same compound, the CC100 in the series with BHK-21 and with Vero C1008 was 50 µg/mL in each case.
Consider `COC(=O)[C@@]1(C)CCC[C@]2(C)c3cc(C(C)=O)c(C(C)C)cc3CC[C@@H]12`, for which the EC in the series with Human alphaherpesvirus 1, in the series with Chikungunya virus, in the series with dengue virus type 2 [3], in the series on Zika virus [4] and in the series with Zika virus [1] was 25 µg/mL throughout. Further, the CC100 was 50 µg/mL with BHK-21 and greater than 50 µg/mL in the series on Vero C1008.
`COC(=O)[C@]1(C)CCC[C@]2(C)c3ccc(C(C)C)cc3CC[C@@H]12`: the EC with Human alphaherpesvirus 1 worked out at 25 µg/mL; in the series on Zika virus [4], 6.2 µg/mL; in the series on Zika virus [1], 12.5 µg/mL. The figures for the CC100 with BHK-21 and in the series with Vero C1008 were 50 µg/mL and greater than 50 µg/mL, respectively.
`CC(C)c1cc2c(cc1O)[C@@]1(C)CCC[C@@](C)(CO)[C@@H]1CC2=O`: the EC in the series with Human alphaherpesvirus 1 worked out at 12.5 µg/mL; with Chikungunya virus, 25 µg/mL; with dengue virus type 2 [3], 12.5 µg/mL; in the series on Zika virus [4], 12.5 µg/mL. The CC100 in the series with BHK-21 was 12.5 µg/mL; in the series on Vero C1008 it was 25 µg/mL.
Turning to `COC(=O)[C@@]1(C)CCC[C@]2(C)c3cc(O)c(C(C)C)cc3CC[C@@H]12`, the CC100 in the series with BHK-21 was 50 µg/mL; in the series with Vero C1008, greater than 50 µg/mL. Also, the EC with Chikungunya virus turned out to be 12.5 µg/mL; in the series with dengue virus type 2 [2], 12.5 µg/mL; in the series with dengue virus type 2 [3], 25 µg/mL; in the series on Zika virus [4] it was 25 µg/mL; with Zika virus [1] it was 12.5 µg/mL.
As for `CC(C)c1cc2c(cc1O)[C@@]1(C)CCC[C@@](C)(C(=O)O)[C@@H]1CC2`, the values for the EC in the series with Human alphaherpesvirus 1 and with Chikungunya virus were 12.5 µg/mL and 25 µg/mL, respectively. Moreover, the CC100 in the series on BHK-21 was determined as 12.5 µg/mL; in the series on Vero C1008, 25 µg/mL.
As for `NC(=O)c1ncn([C@@H]2O[C@H](CO)[C@@H](O)[C@H]2O)n1` [RIBAVIRIN], the CC100 with BHK-21 and in the series on Vero C1008 was greater than 160 µg/mL each time.
With `COC(=O)[C@@]1(C)CCC[C@]2(C)c3cc(OC(C)=O)c(C(C)C)cc3C(=O)C[C@@H]12`, the CC100 in the series with BHK-21 stood at 25 µg/mL; in the series with Vero C1008, 50 µg/mL. The EC with Chikungunya virus and in the series with Zika virus [4] was 25 µg/mL throughout.
`COC(=O)[C@]1(C)CCC[C@]2(C)c3cc(O)c(C(C)C)cc3CC[C@@H]12`: the EC in the series on Human alphaherpesvirus 1 is 12.5 µg/mL; with Chikungunya virus it was 25 µg/mL. Besides, the figures for the CC100 in the series on BHK-21 and in the series on Vero C1008 were 25 µg/mL and 50 µg/mL, respectively.
